Laboratory results reported in publication PMC12596218 (Journal of Lipid Research, 2025).
Where “and” joins values, the source holds several entries; their conditions need not be identical. Equal values may be shown once.

Tests used:
OATP2B1 = biological target: T1, OATP2B1 (Homo sapiens, UniProt O94956); assay: [3H]E1S transport inhibition assay in OATP2B1-HEK293 cells; assay type: cell-based; settings: 200 nM [3H]E1S, 10 min; two independent experiments
T1 construct: stably transfected with the full open reading frames of human NTCP, ASBT, SOAT, OATP1B1, OATP1B3, OATP2B1, and murine Asbt (mAsbt); expressed in transfected cells; host or cells: HEK293, stably transfected (OATP2B1-HEK), tetracycline-induced
T1 sequence (O94956 1-709): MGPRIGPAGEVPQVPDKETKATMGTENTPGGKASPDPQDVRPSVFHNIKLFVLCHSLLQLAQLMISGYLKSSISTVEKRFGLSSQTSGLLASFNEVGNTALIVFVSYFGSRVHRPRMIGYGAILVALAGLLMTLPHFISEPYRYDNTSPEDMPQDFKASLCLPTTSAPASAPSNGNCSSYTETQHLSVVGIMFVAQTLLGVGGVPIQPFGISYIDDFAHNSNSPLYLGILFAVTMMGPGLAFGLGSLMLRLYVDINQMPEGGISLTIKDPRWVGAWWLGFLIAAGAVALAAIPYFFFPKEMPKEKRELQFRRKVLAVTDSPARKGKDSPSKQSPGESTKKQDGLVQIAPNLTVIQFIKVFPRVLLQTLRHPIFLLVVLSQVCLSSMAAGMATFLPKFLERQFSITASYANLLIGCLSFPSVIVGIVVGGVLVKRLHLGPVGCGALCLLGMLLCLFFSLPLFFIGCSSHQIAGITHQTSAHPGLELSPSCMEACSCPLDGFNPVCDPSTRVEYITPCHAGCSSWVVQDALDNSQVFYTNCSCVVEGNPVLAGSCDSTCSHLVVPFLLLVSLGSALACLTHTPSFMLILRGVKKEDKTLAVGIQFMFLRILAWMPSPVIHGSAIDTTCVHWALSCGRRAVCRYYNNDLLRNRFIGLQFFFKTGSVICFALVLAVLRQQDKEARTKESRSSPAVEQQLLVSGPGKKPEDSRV
Text: Human embryonic kidney HEK293 cells, stably transfected with the full open reading frames of human NTCP, ASBT, SOAT, OATP1B1, OATP1B3, OATP2B1, and murine Asbt (mAsbt) were used as reported ([18], [20], [21], [22], [23]). The NTCP, ASBT, and mAsbt constructs were C-terminally tagged with the FLAG epitope, and the SOAT construct was C-terminally tagged with green fluorescent protein. Non-transfected Flp-In HEK293 cells (Thermo Fisher Scientific) served as the control. All cell lines were maintained at 37°C, 5% CO2 and 95% humidity in DMEM/F-12 medium (Thermo Fisher Scientific) supplemented with 10% fetal calf serum (Sigma-Aldrich), 4 mM L-glutamine (PAA) and penicillin/streptomycin (PAA). Expression of the respective carrier protein was induced by tetracycline treatment at 1 μg/ml (Carl Roth GmbH + Co. KG).
(§1) Cells were seeded onto poly-L-lysine-coated 96-well plates, induced with 1 μg/ml tetracycline, and grown to confluence over 72 h at 37°C. Then, cells were washed with tempered (37°C) phosphate-buffered saline (PBS, containing 137.0 mM NaCl, 2.7 mM KCl, 1.5 mM KH2PO4, and 7.3 mM Na2HPO4, at pH 7.4) and preincubated with 80 μl sodium transport buffer (STB, containing 142.9 mM NaCl, 4.7 mM KCl, 1.2 mM MgSO4, 1.2 mM KH2PO4, 1.8 mM CaCl2, and 20.0 mM HEPES, at pH 7.4) for 5 min at 37°C. For inhibition studies, the medium was replaced by 80 μl STB containing the respective inhibitor or solvent alone and cells were further incubated for 5 min at 37°C. Transport experiments were started by adding 20 μl of a 5-fold concentrated substrate solution (solved in STB). For transport experiments under sodium-free conditions the same buffer composition was used as for STB, but sodium chloride was substituted with equimolar concentrations of choline chloride as previously reported ([20], [24]). Transport experiments were stopped by washing twice with ice-cold PBS and the plates were kept cool on ice until adding the lysis buffer [1% sodium dodecyl sulfate (SDS) and 1 N NaOH]. Then, the cell-associated radioactivity of the respective tritium-labeled substrate or ligand was quantified by liquid scintillation counting using MicroScint-20 scintillation cocktail (Revvity) in a Packard Microplate Scintillation Counter TopCount NXT (Packard Instrument Company). For IC50 transport inhibition measurements, the mean uptake values measured in non-carrier-expressing HEK293 control cells were defined as 0% uptake control and were subtracted from all other values. Values from cells without inhibitor and solvent alone were set to 100%. Finally, all net transport data were expressed as uptake or binding as % of control. All transport or inhibition graphs were generated with GraphPad Prism 6 (GraphPad). Determination of half maximal inhibitory concentrations (IC50) was done by nonlinear regression analysis using the equation log (inhibitor) versus response—variable slope settings. All data points of the IC50 curves represent means ± SD of quadruplicate determinations. For Km measurements, BS uptake in the absence of sodium was regarded as carrier-independent unspecific uptake and was subtracted from the transport rates in the presence of sodium to obtain carrier-specific uptake rates (indicated as dashed lines). From the specific uptake rates, Michaelis Menten Km values were calculated by non-linear regression analysis.

[1] = biological target: T2, ASBT S294T/I295V (ASBT→mAsbt) (Homo sapiens, UniProt Q12908, I295V/S294T); assay: [3H]TC transport and inhibition assay, ASBT→mAsbt mutant in HEK293 cells; assay type: cell-based; settings: for Inhibition curve/AUC of ASBT→mAsbt mutant compared to wild-type ASBT: 1 μM [3H]TC, 10 min, AUC combined from two experiments
T2 construct: stably transfected with the full open reading frames of human NTCP, ASBT, SOAT, OATP1B1, OATP1B3, OATP2B1, and murine Asbt (mAsbt); expressed in transfected cells; host or cells: HEK293, stably transfected
T2 sequence (Q12908 1-348 S294T/I295V): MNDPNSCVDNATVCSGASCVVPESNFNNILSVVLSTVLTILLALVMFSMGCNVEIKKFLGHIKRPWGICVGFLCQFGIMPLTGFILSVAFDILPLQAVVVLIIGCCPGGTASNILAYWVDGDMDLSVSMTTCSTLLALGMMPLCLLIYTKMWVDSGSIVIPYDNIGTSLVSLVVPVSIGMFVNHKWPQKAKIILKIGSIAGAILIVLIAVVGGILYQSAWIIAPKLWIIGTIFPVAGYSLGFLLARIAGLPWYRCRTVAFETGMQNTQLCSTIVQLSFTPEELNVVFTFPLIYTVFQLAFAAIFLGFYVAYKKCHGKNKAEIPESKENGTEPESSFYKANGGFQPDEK
Method: Amplification was performed on a peqSTAR XS PEQLAB PCR cycler (Peqlab) with Pfu DNA polymerase (M774A; Promega) in 18 cycles under the following conditions: initial denaturation for 2 min at 95°C, denaturation for 30 s at 95°C, annealing for 1 min at 55°C, extension for 8 min and 30 s at 72°C, final elongation for 10 min at 72°C and final hold at 4°C. After amplification, the products were digested with DpnI (ER1701; Thermo Fisher Scientific) for 1 h at 37°C and transformed into TOP10 chemically competent E. coli (Thermo Fisher Scientific). Plasmids were isolated using a GeneJET Plasmid Miniprep Kit (Thermo Fisher Scientific) according to the manufacturer's protocol, and the generated point mutations were verified by DNA sequencing (Seqlab Microsynth).
as §1

| Structure (SMILES) | IC50 (OATP2B1) | Inhibition curve/AUC of ASBT→mAsbt mutant compared to wild-type ASBT [1] | Transport inhibition at highest substrate concentration ([1]; 500 μM [3H]TC) | IC50 values at increasing substrate concentrations (in words) ([1]; [3H]TC 0.3-500 μM) |
| --- | --- | --- | --- | --- |
| CCCCC1(CCCC)CS(=O)(=O)c2ccc(N(C)C)cc2[C@@H](c2ccc(OCCCC[N+]34CCN(CC3)CC4)cc2)[C@H]1O [SC-435] | > 10 µM and 40.3 µM and 36.5 µM | this effect was also observed |  |  |
| CCCCC1(CCCC)CN(c2ccccc2)c2cc(SC)c(OCC(=O)N[C@@H](C(=O)NCC(=O)O)c3ccccc3)cc2S(=O)(=O)C1 [elobixibat] | 3.9 µM and 3.6 µM | not different |  |  |
| CCCC[C@]1(CC)CS(=O)(=O)c2cc(CNC(CC(=O)O)CC(=O)O)c(OC)cc2[C@@H](c2ccccc2)N1 [linerixibat] | > 10 µM and 26.1 µM and 22.5 µM | significantly reduced the AUC values | full transport inhibition | remained quite stable |
| CCCCC1(CCCC)CS(=O)(=O)c2ccc(N(C)C)cc2[C@@H](c2ccc(OCc3ccc(C[N+]45CCN(CC4)CC5)cc3)cc2)[C@H]1O [maralixibat] | 7.5 µM and 6 µM |  |  |  |
| CCCCC1(CCCC)CN(c2ccccc2)c2cc(SC)c(OCC(=O)N[C@@H](C(=O)N[C@@H](CC)C(=O)O)c3ccc(O)cc3)cc2S(=O)(=O)N1 [odevixibat] | 5.1 µM and 4 µM | not different |  |  |
